Measured values: PMC10779248, “Investigation of the Potential of Selected Food-Derived Antioxidants to Bind and Stabilise the Bioactive Blue Protein C-Phycocyanin from Cyanobacteria Spirulina” (International Journal of Molecular Sciences, 2023)
Blank lines part the entries; values can stand above or below the molecule they belong to.

Experiments:
Format in all cases: binding
Details in all cases: read-out: Ka (M^-1) (converted)
C-phycocyanin (C-PC) [1] = target: T1, C-phycocyanin (C-PC) (Limnospira platensis, UniProt P72508+P72509); experiment: fluorescence quenching titration (PCB emission, excitation […] nm); also near-UV CD, thermal shift of nearly […] °C; design: gene cpcA; native C-PC purified from Spirulina biomass, (αβ)3 trimer / (αβ)6 hexamer; with C-phycocyanin beta subunit (cpcB)
Target sequence in this assay (P72509 whole entry): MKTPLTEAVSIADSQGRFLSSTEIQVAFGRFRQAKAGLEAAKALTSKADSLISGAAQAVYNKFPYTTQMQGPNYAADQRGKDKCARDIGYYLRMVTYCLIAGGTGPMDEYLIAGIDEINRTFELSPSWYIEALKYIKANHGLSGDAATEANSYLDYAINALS
Target sequence in this assay (P72508 whole entry): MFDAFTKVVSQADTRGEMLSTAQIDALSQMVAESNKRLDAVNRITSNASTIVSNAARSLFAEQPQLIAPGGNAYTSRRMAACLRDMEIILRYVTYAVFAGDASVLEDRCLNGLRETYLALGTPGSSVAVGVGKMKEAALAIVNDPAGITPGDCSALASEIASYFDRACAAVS

C-phycocyanin (C-PC) [2] = target: T1, C-phycocyanin (C-PC); experiment: fluorescence quenching titration (PCB emission, excitation […] nm); also UV-VIS, near-UV CD, thermal shift of nearly […] °C; design: gene cpcB; native C-PC purified from Spirulina biomass, (αβ)3 trimer / (αβ)6 hexamer; with C-phycocyanin alpha subunit (cpcA)
Target sequence in this assay (P72508 whole entry): as above
Target sequence in this assay (P72509 whole entry): as the sequence (P72509 whole entry) above

C-phycocyanin (C-PC) [3] = target: T1, C-phycocyanin (C-PC); experiment: fluorescence quenching titration (PCB emission, excitation […] nm); also UV-VIS and near-UV CD; no change in Tm; design: gene cpcB; native C-PC purified from Spirulina biomass, (αβ)3 trimer / (αβ)6 hexamer; with C-phycocyanin alpha subunit (cpcA)
Target sequence in this assay (P72508 whole entry): as the sequence (P72508 whole entry) above
Target sequence in this assay (P72509 whole entry): as the sequence (P72509 whole entry) above

- Kd (C-phycocyanin (C-PC) [1]): 2940 nM
Compound: COC1=C(OC)C(=O)C(C/C=C(\C)CC/C=C(\C)CC/C=C(\C)CC/C=C(\C)CC/C=C(\C)CC/C=C(\C)CC/C=C(\C)CC/C=C(\C)CC/C=C(\C)CCC=C(C)C)=C(C)C1=O [coenzyme Q10]

Compound: O=c1c(O)c(-c2ccc(O)c(O)c2)oc2cc(O)cc(O)c12 [quercetin]
- Kd (C-phycocyanin (C-PC) [2]): 2700 nM

Compound: Oc1ccc(/C=C/c2cc(O)cc(O)c2)cc1 [resveratrol]
- Kd (C-phycocyanin (C-PC) [3]): 4550 nM
